Results on 6 compounds are retold here after ChEMBL document CHEMBL4665796 (2020).

Each structure is given as a SMILES string. Calls of active or inactive are those of the source. The calls are words filed in the database; no cut-off is given here.

The first series concerns Pseudomonas putida. Nature of the series: Antimicrobial activity against Pseudomonas putida at 1.5 ug after 18 hrs by paper disk-agar diffusion assay. In kind it is functional, organism-based. Conditions: dose 1.5 µg.
Regarding `C[C@]12NC(=N)NC=C1C[C@]1(C)O[C@@]2(O)C[C@@H]1O`, the outcome was inactive.

As for `C[C@]12NC(=N)NC=C1C[C@]1(C)O[C@@]2(O)CC1=O`, the outcome was inactive.

Another series has as its system Candida. The series is described as follows: Antimicrobial activity against Candida sp. at 1.5 ug after 18 hrs by paper disk-agar diffusion assay. To be noted: dose 1.5 µg. In kind it is functional, organism-based.
Turning to `C[C@]12NC(=N)NC=C1C[C@]1(C)O[C@@]2(O)C[C@@H]1O`, the outcome was inactive.

For `C[C@]12NC(=N)NC=C1C[C@]1(C)O[C@@]2(O)CC1=O`, the result was inactive.

For another series, the system named is Bacillus subtilis. The series is described as follows: Antimicrobial activity against Bacillus subtilis at 1.5 ug after 18 hrs by paper disk-agar diffusion assay. In kind it is functional, organism-based. Conditions: dose 1.5 µg. For orientation: In agar diffusion tests the substance spreads into inoculated agar from a disc or well.
On to `C[C@]12NC(=N)NC=C1C[C@]1(C)O[C@@]2(O)C[C@@H]1O`, for which the result was inactive.

Take `C[C@]12NC(=N)NC=C1C[C@]1(C)O[C@@]2(O)CC1=O`: the result was inactive.

The target of the next series is Sodium channel protein type 5 subunit alpha (Homo sapiens, UniProt Q14524). Nature of the series: Inhibition of NaV1.5 (unknown origin) at 5 uM.
Sodium channel protein type 5 subunit alpha, sequence (Q14524 whole entry): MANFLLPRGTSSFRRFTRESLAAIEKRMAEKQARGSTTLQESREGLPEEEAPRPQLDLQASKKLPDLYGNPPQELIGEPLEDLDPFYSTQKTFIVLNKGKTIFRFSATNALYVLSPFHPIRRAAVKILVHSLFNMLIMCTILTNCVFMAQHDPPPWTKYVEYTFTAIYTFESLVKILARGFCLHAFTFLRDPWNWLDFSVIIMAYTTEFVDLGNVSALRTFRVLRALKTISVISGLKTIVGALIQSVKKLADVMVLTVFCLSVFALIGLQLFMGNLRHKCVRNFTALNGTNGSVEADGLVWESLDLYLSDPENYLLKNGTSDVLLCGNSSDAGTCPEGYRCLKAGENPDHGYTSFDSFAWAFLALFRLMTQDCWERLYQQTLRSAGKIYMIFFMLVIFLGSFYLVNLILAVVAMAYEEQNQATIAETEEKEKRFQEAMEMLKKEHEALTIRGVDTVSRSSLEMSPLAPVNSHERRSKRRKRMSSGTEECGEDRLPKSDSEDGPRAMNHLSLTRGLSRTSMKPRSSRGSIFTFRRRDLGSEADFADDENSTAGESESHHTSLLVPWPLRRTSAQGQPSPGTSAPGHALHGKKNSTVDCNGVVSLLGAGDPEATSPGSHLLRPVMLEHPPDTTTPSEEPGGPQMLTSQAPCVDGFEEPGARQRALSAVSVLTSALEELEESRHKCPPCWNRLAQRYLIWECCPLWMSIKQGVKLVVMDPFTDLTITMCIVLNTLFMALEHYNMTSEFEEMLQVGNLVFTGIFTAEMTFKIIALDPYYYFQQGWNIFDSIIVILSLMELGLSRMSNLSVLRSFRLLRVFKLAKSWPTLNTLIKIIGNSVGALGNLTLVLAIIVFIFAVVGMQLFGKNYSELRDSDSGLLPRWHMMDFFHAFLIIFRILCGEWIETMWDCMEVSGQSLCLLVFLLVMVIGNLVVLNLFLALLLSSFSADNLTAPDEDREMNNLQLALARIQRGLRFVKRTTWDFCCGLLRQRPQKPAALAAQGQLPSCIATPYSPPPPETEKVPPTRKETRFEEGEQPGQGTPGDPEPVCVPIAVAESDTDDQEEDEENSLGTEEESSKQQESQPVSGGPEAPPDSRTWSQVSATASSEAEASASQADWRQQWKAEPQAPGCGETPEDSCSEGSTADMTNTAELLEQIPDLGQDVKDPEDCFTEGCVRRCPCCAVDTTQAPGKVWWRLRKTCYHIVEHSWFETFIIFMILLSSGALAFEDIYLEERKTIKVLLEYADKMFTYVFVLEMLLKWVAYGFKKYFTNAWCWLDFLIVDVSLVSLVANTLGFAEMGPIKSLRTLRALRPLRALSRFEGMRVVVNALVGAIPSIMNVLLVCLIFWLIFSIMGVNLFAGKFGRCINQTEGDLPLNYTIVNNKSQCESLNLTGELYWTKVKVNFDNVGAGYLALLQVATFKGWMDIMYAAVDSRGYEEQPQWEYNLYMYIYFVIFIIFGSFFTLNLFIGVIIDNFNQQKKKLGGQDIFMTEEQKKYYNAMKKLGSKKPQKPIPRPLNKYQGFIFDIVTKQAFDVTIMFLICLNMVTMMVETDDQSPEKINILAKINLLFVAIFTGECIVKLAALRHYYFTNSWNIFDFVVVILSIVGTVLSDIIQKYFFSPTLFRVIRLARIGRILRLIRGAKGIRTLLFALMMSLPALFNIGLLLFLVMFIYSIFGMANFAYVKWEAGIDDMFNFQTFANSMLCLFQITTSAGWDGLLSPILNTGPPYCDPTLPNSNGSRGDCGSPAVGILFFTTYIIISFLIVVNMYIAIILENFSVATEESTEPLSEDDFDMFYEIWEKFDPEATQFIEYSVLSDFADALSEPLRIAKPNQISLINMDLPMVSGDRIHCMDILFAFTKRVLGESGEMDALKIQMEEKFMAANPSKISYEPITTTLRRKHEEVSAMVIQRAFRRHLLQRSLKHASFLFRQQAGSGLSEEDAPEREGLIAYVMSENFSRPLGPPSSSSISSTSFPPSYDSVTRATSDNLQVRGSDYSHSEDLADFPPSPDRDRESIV
Details: not given
For `C[C@]1(O)C[C@@H]2CNC(=N)N[C@]2(C)C(=O)C[C@@H]1O`, the “inhibition (INH)” value is “Not Active”.

Take `C[C@]12NC(=N)NC[C@H]1C[C@]1(C)O[C@@]2(O)CC1=O`: the “inhibition (INH)” value is on record as “Not Active”.

On to `C[C@]12NC(=N)NC=C1C[C@]1(C)O[C@@]2(O)C[C@@H]1O`, for which the “inhibition (INH)” value is “Not Active”.

On to `C[C@]12NC(=N)NC[C@H]1C[C@]1(C)O[C@@]2(O)C[C@@H]1O`, for which the “inhibition (INH)” value is listed as “Not Active”.

Turning to `C[C@]12NC(=N)NC=C1C[C@]1(C)O[C@@]2(O)CC1=O`, the “inhibition (INH)” value is recorded as “Not Active”.

Consider `C[C@@]12NC(=N)N[C@H]3O[C@H]4C[C@]1(O)O[C@@]4(C)C[C@H]32`, for which the “inhibition (INH)” value was “Not Active”.
